The results in this text go back to publication PMC7144376, “Antiviral Effects of Novel 2-Benzoxyl-Phenylpyridine Derivatives” (Molecules, 2020).

Molecules are shown by their SMILES. Some results are limits rather than exact numbers.

Data set [1] in a line: Cytotoxicity on uninfected HeLa cells (MTT, 48 h). It counts as cell-based. The conditions noted are these: human, read-out: CC50 (reduce cell viability by 50%), ADV7 host cells. How it is done:
(§1) Human laryngeal carcinoma cells (Hep-2) and human cervical carcinoma cells (HeLa) were maintained in DMEM (Gibco) supplemented with 10% fetal bovine serum (FBS; Gibco), 100 U/mL penicillin and streptomycin, and 2 mM L-glutamine.
(§2) The antiviral activities of compounds against CVB3 and ADV7 were determined by measuring their inhibition of virus-induced CPEs in acutely infected Hep-2 and HeLa cells, respectively. Confluent cell monolayers in 96-well plates were infected with 100 TCID50 of CVB3 or ADV7 for 1.5 h at 37 °C, inocula were aspirated, and the cells then were incubated with various concentrations of compounds at 37 °C, 5% CO2, for 48 h. CPEs were observed by microscopy and the viability of cells was determined using MTT assays. The concentrations of test compounds required to achieve 50% protection from virus-induced cytopathogenicity (EC50 values) were determined. Adverse effects of tested compounds on host cells were also assessed using the MTT method after exposing uninfected cells to various concentrations of test compounds for 48 h at 37 °C. The CC50 values of compounds were calculated using SPSS software and selectivity indices were the ratio of CC50:EC50. Each experiment was performed in triplicate and at least three times, independently.

Data set [2] in a line: Cytotoxicity on uninfected Hep-2 cells (MTT, 48 h). It counts as cell-based. To be noted: human, read-out: CC50 (reduce cell viability by 50%), CVB3 host cells. The method, then:
as §1, §2

In data set [3] the test system is CVB3. Briefly: Inhibition of CVB3-induced cytopathic effects in Hep-2 cells (MTT). It counts as cell-based, Coxsackievirus B3. The conditions noted are these: for EC50: Enterovirus B, 100 TCID50 CVB3, 48 h, MTT, read-out: EC50 (50% protection from virus-induced cytopathogenicity), CVB3. How it is done:
(§3) Figure 1 Antiviral activities of novel 2-benzoxyl-phenylpyridine derivatives against CVB3 and ADV7. […] Hep-2 or HeLa cells were infected with 100 TCID50 of CVB3 or ADV7 for 1.5 h at 37 °C. Then, the inocula were aspirated and the cells were incubated with various concentrations of test compounds for 48 h. Cell viability was determined using the MTT assay. (b) Images showing the morphology of Hep-2 and HeLa cells treated with 120 μM W-9, 160 μM W-13, or 160 μM W-15 (magnification, 20×).
as §2

Data set [4] has as its system ADV7. Briefly: Inhibition of ADV7-induced cytopathic effects in HeLa cells (MTT). Type of data set: cell-based, adenovirus type 7. The conditions noted are these: for EC50: Human mastadenovirus B, 100 TCID50 ADV7, 48 h, MTT, read-out: EC50 (50% protection from virus-induced cytopathogenicity), ADV7. The method, then: as §3, §2

`O=C(Oc1ccccc1-c1ccccn1)c1ccccc1` [W1]: the CC50 at 48 h in data set [1] came to 1060 ± 93.5 µM; in data set [2] it was 594 ± 49.1 µM.

On to `COc1ccc(-c2ccccn2)c(OC(=O)c2ccccc2)c1` [W2], for which the half-maximal cytotoxic concentration (CC50) at 48 h in data set [1] is > 656 µM. For the same compound, the CC50 at 48 h in data set [2] stood at 240 ± 22 µM. Further, in data set [3], the “SI (CC50/EC50), CVB3” value turned out to be 2.4; the “inhibitory activity against CVB3 infection (in words)” value is recorded as “significant inhibitory activities”; the EC50 was 101 ± 14.1 µM. Moreover, in data set [4], the “SI (CC50/EC50), ADV7” value is reported as >12.9; the “inhibitory activity against ADV7 infection (in words)” value is given as “significant inhibitory activities”; the EC50 was 50.8 ± 16.7 µM.

`Cc1cccc(OC(=O)c2ccccc2)c1-c1ccccn1` [W3]: the CC50 at 48 h in data set [1] was found to be 921 ± 59.5 µM; in data set [2] it was 630 ± 39.4 µM. Further, the “SI (CC50/EC50), CVB3” value in data set [3] came out at 6.0. The “SI (CC50/EC50), ADV7” value in data set [4] is recorded as 9.8.

Regarding `Cc1cccnc1-c1ccc(Cl)cc1OC(=O)c1ccccc1` [W4], the CC50 at 48 h in data set [1] worked out at 797 ± 45.7 µM. In data set [2], the CC50 at 48 h was found to be 222 ± 24.1 µM. In addition, in data set [3], the “SI (CC50/EC50), CVB3” value turned out to be 4.1; the “inhibitory activity against CVB3 infection (in words)” value is “selective antiviral activities against CVB3”; the EC50 came to 54.4 ± 11.1 µM.

In the case of `COc1ccc(OC(=O)c2ccccc2)c(-c2ncccc2C)c1` [W5], the values for the CC50 at 48 h in data set [1] and in data set [2] were 38.9 ± 18.8 µM and 33.5 ± 9.4 µM, respectively.

As to `Cc1ccc(OC(=O)c2ccccc2)c(-c2ncccc2C)c1` [W6], in data set [1], the CC50 at 48 h was 326 ± 21.8 µM. The CC50 at 48 h in data set [2] was determined as 244 ± 30.4 µM. Besides, in data set [3], the “SI (CC50/EC50), CVB3” value is given as 2.8; the “inhibitory activity against CVB3 infection (in words)” value is given as “significant inhibitory activities”; the EC50 was found to be 88.4 ± 19.5 µM. In data set [4], the “SI (CC50/EC50), ADV7” value is 4.9; the “inhibitory activity against ADV7 infection (in words)” value was “significant inhibitory activities”; the EC50 was determined as 66 ± 20.1 µM.

On to `Cc1cccnc1-c1sccc1OC(=O)c1ccccc1` [W7], for which the CC50 at 48 h in data set [1] came to 1030 ± 63.1 µM; in data set [2], 350 ± 28.8 µM.

Take `Cc1cccnc1-c1ccc(F)cc1OC(=O)c1ccccc1` [W8]: in data set [1], the CC50 at 48 h was determined as 843 ± 37.1 µM. For the same compound, the CC50 at 48 h in data set [2] was 354 ± 49.5 µM. Besides, in data set [3], the “SI (CC50/EC50), CVB3” value was 4.4; the “inhibitory activity against CVB3 infection (in words)” value was “selective antiviral activities against CVB3”; the EC50 came out at 80.1 ± 15 µM.

On to `O=C(Oc1cc(Br)ccc1-c1ccccn1)c1ccccc1` [W10], for which the 50% cytotoxic concentration (CC50) at 48 h in data set [1] was 249 ± 23.2 µM. For the same compound, the CC50 at 48 h in data set [2] is 184 ± 26.3 µM. In data set [3], the “SI (CC50/EC50), CVB3” value is on record as 5.0; the “inhibitory activity against CVB3 infection (in words)” value was “significant inhibitory activities”; the EC50 amounted to 36.7 ± 15.8 µM. Moreover, in data set [4], the “SI (CC50/EC50), ADV7” value came to 4.9; the “inhibitory activity against ADV7 infection (in words)” value is reported as “significant inhibitory activities”; the EC50 was 51.1 ± 20.1 µM.

As for `O=C(Oc1ccsc1-c1ccccn1)c1ccccc1` [W11], the results for the CC50 at 48 h in data set [1] and in data set [2] were 1020 ± 72.6 µM and 378 ± 19.2 µM, respectively.

As to `Cc1cccnc1-c1ccc(Br)cc1OC(=O)c1ccccc1` [W12], in data set [1], the CC50 at 48 h was determined as 211 ± 14.7 µM. Moreover, the CC50 at 48 h in data set [2] amounted to 128 ± 17.9 µM. Moreover, in data set [4], the “SI (CC50/EC50), ADV7” value was found to be 3.3; the “inhibitory activity against ADV7 infection (in words)” value is on record as “selective anti-ADV7 activity”; the EC50 turned out to be 63.6 ± 16.6 µM.

For the compound `CC(=O)c1ccc(-c2ccccn2)c(OC(=O)c2ccccc2)c1` [W14], the 50% cytotoxic concentration (CC50) at 48 h in data set [1] came to 979 ± 27.8 µM. Besides, the CC50 at 48 h in data set [2] was 490 ± 26.8 µM. In data set [3], the “SI (CC50/EC50), CVB3” value stood at 5.6; the “inhibitory activity against CVB3 infection (in words)” value was “significant inhibitory activities”; the EC50 came to 87.1 ± 21.1 µM. Also, in data set [4], the “SI (CC50/EC50), ADV7” value is given as 13.0; the “inhibitory activity against ADV7 infection (in words)” value was “significant inhibitory activities”; the EC50 is 75.4 ± 20.2 µM.
